PubChem BioAssay (NCI)
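Five concentrations, 48 hours, 96-well plates. At the GI50, growth is halved. TGI marks complete inhibition of growth.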

Tests used:
Test in all cases: NCI-60 cell line screen, 48 h
TK-10 renal = system: TK-10 renal
HCT-15 colon = system: HCT-15 colon
MOLT-4 leukemia = system: MOLT-4 leukemia
OVCAR-3 ovarian = system: OVCAR-3 ovarian
MALME-3M melanoma = system: MALME-3M melanoma
NCI-H226 lung = system: NCI-H226 lung
HOP-92 NSCLC = system: HOP-92 NSCLC
SNB-75 CNS = system: SNB-75 CNS
SK-OV-3 ovarian = system: SK-OV-3 ovarian
CAKI-1 renal = system: CAKI-1 renal
BT-549 breast = system: BT-549 breast
K-562 leukemia = system: K-562 leukemia
NCI-H23 lung = system: NCI-H23 lung
SNB-19 CNS = system: SNB-19 CNS
LOX IMVI melanoma = system: LOX IMVI melanoma
NCI-H460 lung = system: NCI-H460 lung
PC-3 prostate = system: PC-3 prostate
U251 CNS = system: U251 CNS
A498 renal = system: A498 renal
RPMI-8226 leukemia = system: RPMI-8226 leukemia
ACHN renal = system: ACHN renal
IGROV1 ovarian = system: IGROV1 ovarian
SF-539 CNS = system: SF-539 CNS
MCF7 breast = system: MCF7 breast
SN12C renal = system: SN12C renal
SK-MEL-5 melanoma = system: SK-MEL-5 melanoma
HCT-116 colon = system: HCT-116 colon
MDA-MB-231 breast = system: MDA-MB-231 breast
M14 melanoma = system: M14 melanoma
786-0 renal = system: 786-0 renal
UACC-62 melanoma = system: UACC-62 melanoma
SR leukemia = system: SR leukemia
KM12 colon = system: KM12 colon
A549 NSCLC = system: A549 NSCLC
HL-60(TB) leukemia = system: HL-60(TB) leukemia
HOP-62 NSCLC = system: HOP-62 NSCLC
HS 578T breast = system: HS 578T breast
SF-295 CNS = system: SF-295 CNS
UACC-257 melanoma = system: UACC-257 melanoma
SF-268 CNS = system: SF-268 CNS
HT29 colon = system: HT29 colon
SW-620 colon = system: SW-620 colon
RXF 393 renal = system: RXF 393 renal
COLO 205 colon = system: COLO 205 colon
UO-31 renal = system: UO-31 renal
DU-145 prostate = system: DU-145 prostate
CCRF-CEM leukemia = system: CCRF-CEM leukemia
OVCAR-8 ovarian = system: OVCAR-8 ovarian
OVCAR-4 ovarian = system: OVCAR-4 ovarian
HCC-2998 colon = system: HCC-2998 colon
NCI-H522 lung = system: NCI-H522 lung
SK-MEL-2 melanoma = system: SK-MEL-2 melanoma
NCI/ADR-RES ovarian = system: NCI/ADR-RES ovarian
EKVX NSCLC = system: EKVX NSCLC
OVCAR-5 ovarian = system: OVCAR-5 ovarian
SK-MEL-28 melanoma = system: SK-MEL-28 melanoma
MDA-MB-435 = system: MDA-MB-435

Question: What does the source list for `Nc1c(C(=O)Nc2ccccc2)sc2nc3c(cc12)C(O)CCC3` (stereo not given)?
Answer: GI50 (TK-10 renal): > 100 µM; TGI (TK-10 renal): > 100 µM; GI50 (HCT-15 colon): 0.336 µM; TGI (HCT-15 colon): > 100 µM; GI50 (MOLT-4 leukemia): 0.491 µM; TGI (MOLT-4 leukemia): > 100 µM; GI50 (OVCAR-3 ovarian): 0.344 µM; TGI (OVCAR-3 ovarian): > 100 µM; GI50 (MALME-3M melanoma): 0.256 µM; TGI (MALME-3M melanoma): > 100 µM; GI50 (NCI-H226 lung): 1.27 µM; TGI (NCI-H226 lung): > 100 µM; GI50 (HOP-92 NSCLC): 0.264 µM; TGI (HOP-92 NSCLC): > 100 µM; GI50 (SNB-75 CNS): 0.278 µM; TGI (SNB-75 CNS): > 100 µM; GI50 (SK-OV-3 ovarian): 0.439 µM; TGI (SK-OV-3 ovarian): > 100 µM; GI50 (CAKI-1 renal): 0.349 µM; TGI (CAKI-1 renal): > 100 µM; GI50 (BT-549 breast): 1.24 µM; TGI (BT-549 breast): > 100 µM; GI50 (K-562 leukemia): 0.196 µM; TGI (K-562 leukemia): > 100 µM; GI50 (NCI-H23 lung): 0.665 µM; TGI (NCI-H23 lung): > 100 µM; GI50 (SNB-19 CNS): 0.577 µM; TGI (SNB-19 CNS): > 100 µM; GI50 (LOX IMVI melanoma): 0.638 µM; TGI (LOX IMVI melanoma): > 100 µM; GI50 (NCI-H460 lung): 0.355 µM; TGI (NCI-H460 lung): > 100 µM; GI50 (PC-3 prostate): 0.325 µM; TGI (PC-3 prostate): > 100 µM; GI50 (U251 CNS): 0.362 µM; TGI (U251 CNS): > 100 µM; GI50 (A498 renal): 0.273 µM; TGI (A498 renal): > 100 µM; GI50 (RPMI-8226 leukemia): 0.372 µM; TGI (RPMI-8226 leukemia): > 100 µM; GI50 (ACHN renal): 0.981 µM; TGI (ACHN renal): > 100 µM; GI50 (IGROV1 ovarian): 0.65 µM; TGI (IGROV1 ovarian): > 100 µM; GI50 (SF-539 CNS): 0.225 µM; TGI (SF-539 CNS): 0.604 µM; GI50 (MCF7 breast): 0.241 µM; TGI (MCF7 breast): > 100 µM; GI50 (SN12C renal): 0.559 µM; TGI (SN12C renal): > 100 µM; GI50 (SK-MEL-5 melanoma): 0.407 µM; TGI (SK-MEL-5 melanoma): 23.9 µM; GI50 (HCT-116 colon): 0.488 µM; TGI (HCT-116 colon): > 100 µM; GI50 (MDA-MB-231 breast): 0.946 µM; TGI (MDA-MB-231 breast): > 100 µM; GI50 (M14 melanoma): 0.281 µM; TGI (M14 melanoma): > 100 µM; GI50 (786-0 renal): 0.623 µM; TGI (786-0 renal): > 100 µM; GI50 (UACC-62 melanoma): 0.444 µM; TGI (UACC-62 melanoma): > 100 µM; GI50 (SR leukemia): 0.168 µM; TGI (SR leukemia): > 100 µM; GI50 (KM12 colon): 0.44 µM; TGI (KM12 colon): > 100 µM; GI50 (A549 NSCLC): 0.406 µM; TGI (A549 NSCLC): > 100 µM; GI50 (HL-60(TB) leukemia): 0.232 µM; TGI (HL-60(TB) leukemia): 0.706 µM; GI50 (HOP-62 NSCLC): 0.455 µM; TGI (HOP-62 NSCLC): > 100 µM; GI50 (HS 578T breast): 0.362 µM; TGI (HS 578T breast): > 100 µM; GI50 (SF-295 CNS): 0.297 µM; TGI (SF-295 CNS): > 100 µM; GI50 (UACC-257 melanoma): > 100 µM; TGI (UACC-257 melanoma): > 100 µM; GI50 (SF-268 CNS): 0.7 µM; TGI (SF-268 CNS): > 100 µM; GI50 (HT29 colon): 0.323 µM; GI50 (SW-620 colon): 0.371 µM; TGI (SW-620 colon): > 100 µM; GI50 (RXF 393 renal): 0.349 µM; TGI (RXF 393 renal): > 100 µM; GI50 (COLO 205 colon): 0.295 µM; TGI (COLO 205 colon): 2.63 µM; GI50 (UO-31 renal): 0.689 µM; TGI (UO-31 renal): > 100 µM; GI50 (DU-145 prostate): 0.355 µM; TGI (DU-145 prostate): > 100 µM; GI50 (CCRF-CEM leukemia): 0.323 µM; TGI (CCRF-CEM leukemia): > 100 µM; GI50 (OVCAR-8 ovarian): 0.471 µM; TGI (OVCAR-8 ovarian): > 100 µM; GI50 (OVCAR-4 ovarian): 3.66 µM; TGI (OVCAR-4 ovarian): > 100 µM; GI50 (HCC-2998 colon): 1.07 µM; TGI (HCC-2998 colon): > 79.3 µM; GI50 (NCI-H522 lung): 0.28 µM

Question: With `Cc1c(CN)c(C)c(CN)c(C)c1CN` as the compound, how does the TGI (TK-10 renal) read?
Answer: The TGI was over 100 µM.

Question: And the TGI (HCT-15 colon)?
Answer: The TGI was over 100 µM.

Question: What about the TGI (MOLT-4 leukemia) of the same compound?
Answer: The TGI was over 100 µM.

Question: What about the TGI (MALME-3M melanoma) of the same compound?
Answer: The TGI was over 100 µM.

Question: And the TGI (NCI-H226 lung)?
Answer: The TGI was over 100 µM.

Question: What about the TGI (HOP-92 NSCLC) of the same compound?
Answer: Its TGI is over 100 µM.

Question: What about the TGI (SNB-75 CNS) of the same compound?
Answer: The TGI was over 100 µM.

Question: What about the TGI (CAKI-1 renal) of the same compound?
Answer: The TGI was over 100 µM.

Question: And the TGI (BT-549 breast)?
Answer: The TGI was over 100 µM.

Question: And the TGI (SK-MEL-2 melanoma)?
Answer: The TGI was over 100 µM.

Question: And the TGI (NCI/ADR-RES ovarian)?
Answer: The TGI was over 100 µM.

Question: And the TGI (K-562 leukemia)?
Answer: Its TGI is over 100 µM.

Question: What about the TGI (NCI-H23 lung) of the same compound?
Answer: Its TGI is 94.5 µM.

Question: What about the TGI (SNB-19 CNS) of the same compound?
Answer: Its TGI is over 100 µM.

Question: And the TGI (LOX IMVI melanoma)?
Answer: The TGI was over 100 µM.

Question: And the TGI (NCI-H460 lung)?
Answer: The TGI was over 100 µM.

Question: And the TGI (PC-3 prostate)?
Answer: Its TGI is over 100 µM.

Question: And the TGI (U251 CNS)?
Answer: Its TGI is over 100 µM.

Question: What about the TGI (RPMI-8226 leukemia) of the same compound?
Answer: The TGI was over 100 µM.

Question: What about the TGI (ACHN renal) of the same compound?
Answer: Its TGI is over 100 µM.

Question: What about the TGI (IGROV1 ovarian) of the same compound?
Answer: The TGI was over 100 µM.

Question: And the TGI (SF-539 CNS)?
Answer: Its TGI is over 100 µM.

Question: And the TGI (EKVX NSCLC)?
Answer: The TGI was over 100 µM.

Question: What about the TGI (MCF7 breast) of the same compound?
Answer: The TGI was over 100 µM.

Question: What about the TGI (SN12C renal) of the same compound?
Answer: Its TGI is over 100 µM.

Question: What about the TGI (SK-MEL-5 melanoma) of the same compound?
Answer: The TGI was over 100 µM.

Question: And the TGI (HCT-116 colon)?
Answer: The TGI was over 100 µM.

Question: What about the TGI (MDA-MB-231 breast) of the same compound?
Answer: Its TGI is over 100 µM.

Question: What about the TGI (M14 melanoma) of the same compound?
Answer: The TGI was over 100 µM.

Question: And the TGI (786-0 renal)?
Answer: The TGI was over 100 µM.

Question: And the TGI (SR leukemia)?
Answer: The TGI was over 100 µM.

Question: And the TGI (OVCAR-5 ovarian)?
Answer: Its TGI is over 100 µM.

Question: What about the TGI (KM12 colon) of the same compound?
Answer: The TGI was over 100 µM.

Question: And the TGI (A549 NSCLC)?
Answer: The TGI was over 100 µM.

Question: And the TGI (HL-60(TB) leukemia)?
Answer: Its TGI is over 100 µM.

Question: What about the TGI (HOP-62 NSCLC) of the same compound?
Answer: The TGI was over 100 µM.

Question: What about the TGI (SF-295 CNS) of the same compound?
Answer: Its TGI is over 100 µM.

Question: What about the TGI (UACC-257 melanoma) of the same compound?
Answer: The TGI was over 100 µM.

Question: What about the TGI (SF-268 CNS) of the same compound?
Answer: The TGI was over 100 µM.

Question: And the TGI (HT29 colon)?
Answer: Its TGI is over 100 µM.

Question: What about the TGI (SW-620 colon) of the same compound?
Answer: The TGI was over 100 µM.

Question: And the TGI (COLO 205 colon)?
Answer: Its TGI is over 100 µM.

Question: What about the TGI (DU-145 prostate) of the same compound?
Answer: Its TGI is over 100 µM.

Question: What about the TGI (SK-MEL-28 melanoma) of the same compound?
Answer: The TGI was over 100 µM.

Question: What about the TGI (CCRF-CEM leukemia) of the same compound?
Answer: The TGI was over 100 µM.

Question: What about the TGI (OVCAR-8 ovarian) of the same compound?
Answer: The TGI was over 100 µM.

Question: And the TGI (MDA-MB-435)?
Answer: Its TGI is over 100 µM.

Question: What about the TGI (OVCAR-4 ovarian) of the same compound?
Answer: Its TGI is over 100 µM.

Question: And the TGI (HCC-2998 colon)?
Answer: Its TGI is over 100 µM.

Question: What about the TGI (NCI-H522 lung) of the same compound?
Answer: Its TGI is over 100 µM.
